For assay [1], the system named is HDAC activity in HeLa cell nuclear extract. Description: Inhibition of HDAC activity in HeLa cell nuclear extract. It counts as biochemical, human. To be noted: for IC50: read-out: HDAC inhibition, IC50, HeLa, at least in duplicate; for HDAC inhibitory activity in HeLa cell nuclear extract, result in words: numbers only in Figures 2-4 (not readable).
Another assay addresses recombinant human HDAC1 (Homo sapiens, UniProt Q13547). Description: Recombinant HDAC isoform inhibition, HDAC1. The class given is biochemical.
For a further assay, the target named is recombinant human HDAC2 (Homo sapiens, UniProt Q92769). Briefly: Recombinant HDAC isoform inhibition, HDAC2. It counts as biochemical.
Chain of recombinant human HDAC2 (Q92769 whole entry, canonical isoform): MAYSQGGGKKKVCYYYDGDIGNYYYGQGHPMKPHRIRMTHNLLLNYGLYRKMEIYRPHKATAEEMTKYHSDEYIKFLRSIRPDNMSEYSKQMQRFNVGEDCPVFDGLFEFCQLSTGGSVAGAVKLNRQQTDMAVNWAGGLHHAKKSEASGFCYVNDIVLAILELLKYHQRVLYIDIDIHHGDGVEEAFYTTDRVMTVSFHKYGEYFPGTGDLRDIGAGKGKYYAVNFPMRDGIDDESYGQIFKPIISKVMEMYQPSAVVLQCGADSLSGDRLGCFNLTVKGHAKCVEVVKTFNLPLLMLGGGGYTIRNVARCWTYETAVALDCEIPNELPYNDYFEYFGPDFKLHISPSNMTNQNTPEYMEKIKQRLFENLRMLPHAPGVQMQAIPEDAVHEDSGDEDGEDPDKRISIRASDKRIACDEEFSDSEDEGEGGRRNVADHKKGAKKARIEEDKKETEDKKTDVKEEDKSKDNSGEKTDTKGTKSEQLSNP
For another assay, the target named is recombinant human HDAC4 (Homo sapiens, UniProt P56524). Briefly: Recombinant HDAC isoform inhibition, HDAC4. It counts as biochemical.
Chain of recombinant human HDAC4 (P56524 whole entry, canonical isoform): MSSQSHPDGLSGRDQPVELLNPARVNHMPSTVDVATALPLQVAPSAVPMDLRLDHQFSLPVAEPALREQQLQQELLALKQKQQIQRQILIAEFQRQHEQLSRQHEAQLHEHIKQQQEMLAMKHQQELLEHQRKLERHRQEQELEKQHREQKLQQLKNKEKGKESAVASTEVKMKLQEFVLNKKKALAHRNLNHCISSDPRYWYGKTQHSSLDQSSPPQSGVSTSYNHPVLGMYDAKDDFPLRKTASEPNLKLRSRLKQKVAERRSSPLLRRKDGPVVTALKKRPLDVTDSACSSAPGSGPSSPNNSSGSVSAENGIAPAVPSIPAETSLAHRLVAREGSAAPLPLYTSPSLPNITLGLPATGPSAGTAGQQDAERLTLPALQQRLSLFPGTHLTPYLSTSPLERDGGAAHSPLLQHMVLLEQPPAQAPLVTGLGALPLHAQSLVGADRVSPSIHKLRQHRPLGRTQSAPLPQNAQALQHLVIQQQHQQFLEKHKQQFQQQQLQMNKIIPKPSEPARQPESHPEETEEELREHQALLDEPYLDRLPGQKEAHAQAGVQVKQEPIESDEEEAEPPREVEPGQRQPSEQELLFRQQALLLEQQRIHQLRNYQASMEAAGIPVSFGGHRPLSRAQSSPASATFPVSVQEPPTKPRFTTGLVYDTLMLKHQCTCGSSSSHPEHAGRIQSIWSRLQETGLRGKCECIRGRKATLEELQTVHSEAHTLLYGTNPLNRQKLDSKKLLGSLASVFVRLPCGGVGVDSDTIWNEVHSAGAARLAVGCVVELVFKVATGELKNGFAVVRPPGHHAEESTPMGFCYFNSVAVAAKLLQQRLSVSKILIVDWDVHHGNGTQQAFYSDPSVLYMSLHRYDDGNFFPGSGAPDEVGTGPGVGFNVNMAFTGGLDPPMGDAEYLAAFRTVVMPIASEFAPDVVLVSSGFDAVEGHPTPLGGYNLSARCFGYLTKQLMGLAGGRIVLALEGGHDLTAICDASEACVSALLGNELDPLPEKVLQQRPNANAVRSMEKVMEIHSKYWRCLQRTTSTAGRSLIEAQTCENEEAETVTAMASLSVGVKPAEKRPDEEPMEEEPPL
Another assay addresses recombinant human HDAC5 (Homo sapiens, UniProt Q9UQL6). Description: Recombinant HDAC isoform inhibition, HDAC5. It counts as biochemical.
A further assay concerns the target T1, recombinant human HDAC7 (Homo sapiens, UniProt Q8WUI4).
T1 sequence (Q8WUI4 1-952): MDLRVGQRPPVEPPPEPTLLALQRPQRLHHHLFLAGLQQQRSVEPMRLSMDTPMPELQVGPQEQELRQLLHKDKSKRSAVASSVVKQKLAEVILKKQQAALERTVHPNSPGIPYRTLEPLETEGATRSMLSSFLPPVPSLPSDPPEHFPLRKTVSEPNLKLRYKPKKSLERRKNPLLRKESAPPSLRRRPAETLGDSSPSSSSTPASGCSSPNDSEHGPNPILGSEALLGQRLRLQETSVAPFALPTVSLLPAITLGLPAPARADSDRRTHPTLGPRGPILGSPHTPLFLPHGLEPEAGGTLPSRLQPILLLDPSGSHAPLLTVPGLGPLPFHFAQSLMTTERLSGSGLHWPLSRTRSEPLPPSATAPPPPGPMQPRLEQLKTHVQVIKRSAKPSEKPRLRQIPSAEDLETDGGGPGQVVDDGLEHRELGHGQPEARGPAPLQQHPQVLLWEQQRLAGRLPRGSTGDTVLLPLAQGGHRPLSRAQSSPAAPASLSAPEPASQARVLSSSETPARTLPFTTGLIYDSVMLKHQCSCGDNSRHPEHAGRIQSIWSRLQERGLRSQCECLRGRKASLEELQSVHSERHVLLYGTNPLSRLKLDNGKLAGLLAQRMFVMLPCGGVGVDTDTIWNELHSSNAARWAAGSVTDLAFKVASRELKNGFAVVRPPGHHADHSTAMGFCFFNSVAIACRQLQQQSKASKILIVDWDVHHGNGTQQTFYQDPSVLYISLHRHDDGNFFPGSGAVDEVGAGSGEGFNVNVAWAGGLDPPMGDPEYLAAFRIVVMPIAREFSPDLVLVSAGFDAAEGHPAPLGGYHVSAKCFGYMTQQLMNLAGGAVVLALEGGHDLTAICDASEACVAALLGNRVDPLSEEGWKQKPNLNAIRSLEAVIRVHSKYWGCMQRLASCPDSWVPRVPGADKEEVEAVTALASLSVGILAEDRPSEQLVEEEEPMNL
Description: Recombinant HDAC isoform inhibition, HDAC7. It counts as biochemical.

The target of a further assay is recombinant human HDAC9 (Homo sapiens, UniProt Q9UKV0). Briefly: Recombinant HDAC isoform inhibition, HDAC9. It counts as biochemical.
Chain of recombinant human HDAC9 (Q9UKV0 whole entry, canonical isoform): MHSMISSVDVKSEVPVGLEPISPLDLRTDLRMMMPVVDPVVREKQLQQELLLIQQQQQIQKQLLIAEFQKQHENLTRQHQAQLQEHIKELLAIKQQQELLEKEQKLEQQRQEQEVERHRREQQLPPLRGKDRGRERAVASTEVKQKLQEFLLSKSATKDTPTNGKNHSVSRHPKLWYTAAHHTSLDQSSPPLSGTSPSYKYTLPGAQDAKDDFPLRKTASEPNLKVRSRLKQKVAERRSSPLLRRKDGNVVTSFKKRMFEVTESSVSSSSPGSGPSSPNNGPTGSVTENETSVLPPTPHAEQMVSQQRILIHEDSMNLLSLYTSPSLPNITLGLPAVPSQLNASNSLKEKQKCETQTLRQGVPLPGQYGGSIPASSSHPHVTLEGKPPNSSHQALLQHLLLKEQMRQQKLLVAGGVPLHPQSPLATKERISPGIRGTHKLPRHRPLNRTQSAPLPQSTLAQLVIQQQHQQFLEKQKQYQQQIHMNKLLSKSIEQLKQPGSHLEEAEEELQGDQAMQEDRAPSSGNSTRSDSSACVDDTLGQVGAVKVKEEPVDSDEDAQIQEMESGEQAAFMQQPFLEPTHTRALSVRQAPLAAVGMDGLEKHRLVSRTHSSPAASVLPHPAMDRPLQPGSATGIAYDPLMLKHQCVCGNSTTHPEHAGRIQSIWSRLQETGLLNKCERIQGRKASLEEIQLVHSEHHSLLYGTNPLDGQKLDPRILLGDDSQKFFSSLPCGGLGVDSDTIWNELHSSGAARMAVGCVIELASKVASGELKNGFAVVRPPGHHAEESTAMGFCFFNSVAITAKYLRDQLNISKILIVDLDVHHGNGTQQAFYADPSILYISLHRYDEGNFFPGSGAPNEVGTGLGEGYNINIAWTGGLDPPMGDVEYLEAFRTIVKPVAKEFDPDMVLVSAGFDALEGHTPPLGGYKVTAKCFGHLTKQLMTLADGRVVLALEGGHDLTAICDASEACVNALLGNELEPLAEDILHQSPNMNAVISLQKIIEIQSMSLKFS
For another assay, the target named is T2, recombinant human HDAC10 (Homo sapiens, UniProt Q969S8).
T2 sequence (Q969S8 1-669): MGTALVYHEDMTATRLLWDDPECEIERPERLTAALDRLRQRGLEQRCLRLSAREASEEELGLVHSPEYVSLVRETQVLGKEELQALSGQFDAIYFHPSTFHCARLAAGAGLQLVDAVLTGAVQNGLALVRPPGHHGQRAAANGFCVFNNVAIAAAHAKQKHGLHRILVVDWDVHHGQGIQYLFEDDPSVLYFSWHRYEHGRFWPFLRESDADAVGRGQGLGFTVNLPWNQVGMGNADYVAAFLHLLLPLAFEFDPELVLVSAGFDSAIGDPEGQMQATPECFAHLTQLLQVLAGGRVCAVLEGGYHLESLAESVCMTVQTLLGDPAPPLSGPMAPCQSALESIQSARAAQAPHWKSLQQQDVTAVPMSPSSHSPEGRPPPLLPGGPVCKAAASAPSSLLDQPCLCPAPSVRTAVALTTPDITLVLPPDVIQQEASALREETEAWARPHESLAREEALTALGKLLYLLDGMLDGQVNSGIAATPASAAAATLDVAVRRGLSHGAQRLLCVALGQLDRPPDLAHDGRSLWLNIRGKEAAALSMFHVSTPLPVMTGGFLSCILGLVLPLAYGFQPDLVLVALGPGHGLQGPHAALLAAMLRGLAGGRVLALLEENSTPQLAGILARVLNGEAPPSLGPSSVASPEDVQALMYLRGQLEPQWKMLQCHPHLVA
Briefly: Recombinant HDAC isoform inhibition, HDAC10. It counts as biochemical.

In the next assay the target is recombinant human HDAC3 (Homo sapiens, UniProt O15379). Description: Recombinant HDAC isoform inhibition, HDAC3. It counts as biochemical.
Chain of recombinant human HDAC3 (O15379 whole entry, canonical isoform): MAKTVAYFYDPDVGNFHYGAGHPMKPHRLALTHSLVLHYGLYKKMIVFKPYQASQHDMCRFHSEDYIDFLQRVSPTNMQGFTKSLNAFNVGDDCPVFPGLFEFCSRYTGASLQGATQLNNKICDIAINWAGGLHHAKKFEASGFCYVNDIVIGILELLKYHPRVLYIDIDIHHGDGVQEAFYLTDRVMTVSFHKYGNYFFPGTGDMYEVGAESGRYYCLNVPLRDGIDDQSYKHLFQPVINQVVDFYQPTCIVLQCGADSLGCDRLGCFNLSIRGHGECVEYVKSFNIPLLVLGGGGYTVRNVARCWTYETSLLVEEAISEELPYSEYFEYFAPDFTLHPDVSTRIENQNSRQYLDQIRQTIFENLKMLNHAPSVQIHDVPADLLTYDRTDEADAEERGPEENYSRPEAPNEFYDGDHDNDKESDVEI
Chain of recombinant human HDAC3 (Q9Y618 395-489 partner limits assumed): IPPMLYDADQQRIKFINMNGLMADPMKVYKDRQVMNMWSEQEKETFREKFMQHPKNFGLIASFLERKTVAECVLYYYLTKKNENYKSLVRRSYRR
Another assay addresses T3, recombinant human HDAC6 (Homo sapiens, UniProt Q9UBN7).
T3 sequence (Q9UBN7 1-1215): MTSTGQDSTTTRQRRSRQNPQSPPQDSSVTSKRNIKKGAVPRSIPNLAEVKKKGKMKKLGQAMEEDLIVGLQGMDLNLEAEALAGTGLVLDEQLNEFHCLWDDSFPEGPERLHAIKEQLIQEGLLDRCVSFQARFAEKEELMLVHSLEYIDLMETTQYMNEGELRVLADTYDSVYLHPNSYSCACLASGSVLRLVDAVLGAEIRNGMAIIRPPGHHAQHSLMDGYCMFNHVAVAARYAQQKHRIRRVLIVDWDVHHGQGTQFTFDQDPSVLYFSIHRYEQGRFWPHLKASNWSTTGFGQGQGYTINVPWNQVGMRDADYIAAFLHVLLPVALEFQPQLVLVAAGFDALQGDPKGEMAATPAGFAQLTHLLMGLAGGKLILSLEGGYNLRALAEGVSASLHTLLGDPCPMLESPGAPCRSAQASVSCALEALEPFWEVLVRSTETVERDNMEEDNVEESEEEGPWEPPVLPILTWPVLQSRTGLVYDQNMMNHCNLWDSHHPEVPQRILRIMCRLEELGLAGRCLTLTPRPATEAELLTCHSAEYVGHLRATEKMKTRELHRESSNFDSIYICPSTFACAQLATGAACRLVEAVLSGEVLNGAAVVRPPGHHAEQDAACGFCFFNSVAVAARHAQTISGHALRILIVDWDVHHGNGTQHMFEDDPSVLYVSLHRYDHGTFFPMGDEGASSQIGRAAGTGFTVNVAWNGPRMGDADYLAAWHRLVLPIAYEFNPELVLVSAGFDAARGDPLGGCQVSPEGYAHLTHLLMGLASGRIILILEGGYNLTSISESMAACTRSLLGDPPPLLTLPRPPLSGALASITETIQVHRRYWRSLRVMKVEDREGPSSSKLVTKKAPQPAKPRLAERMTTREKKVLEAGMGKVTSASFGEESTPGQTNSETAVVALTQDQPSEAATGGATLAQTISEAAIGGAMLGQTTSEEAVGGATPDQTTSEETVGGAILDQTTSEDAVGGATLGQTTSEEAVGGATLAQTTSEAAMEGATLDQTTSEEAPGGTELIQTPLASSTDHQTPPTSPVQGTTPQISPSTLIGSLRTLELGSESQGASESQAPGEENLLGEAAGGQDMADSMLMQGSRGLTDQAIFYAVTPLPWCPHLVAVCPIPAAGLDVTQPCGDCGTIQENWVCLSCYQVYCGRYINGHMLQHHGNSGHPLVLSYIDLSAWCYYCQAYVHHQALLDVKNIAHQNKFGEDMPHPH
Briefly: Recombinant HDAC isoform inhibition, HDAC6. The class given is biochemical.

Each structure is given as a SMILES string. Square brackets hold non-standard residues; d marks the D form. Peptide text beside a SMILES is read from it. * marks the point of attachment. Asu = N[C@@H](CCCCCC(=O)O)C(=O)O; β3hL = CC(C)C[C@H](N)CC(=O)O; NHOH = ON* A value given as a limit tells only on which side of the number the result lay.

Results on seven compounds are retold here after PMC2751792 (Journal of the American Chemical Society, 2009).

A word on the IC50: it is the concentration that gives 50% inhibition.

Chain of recombinant human HDAC5 (Q9UQL6 whole entry, canonical isoform): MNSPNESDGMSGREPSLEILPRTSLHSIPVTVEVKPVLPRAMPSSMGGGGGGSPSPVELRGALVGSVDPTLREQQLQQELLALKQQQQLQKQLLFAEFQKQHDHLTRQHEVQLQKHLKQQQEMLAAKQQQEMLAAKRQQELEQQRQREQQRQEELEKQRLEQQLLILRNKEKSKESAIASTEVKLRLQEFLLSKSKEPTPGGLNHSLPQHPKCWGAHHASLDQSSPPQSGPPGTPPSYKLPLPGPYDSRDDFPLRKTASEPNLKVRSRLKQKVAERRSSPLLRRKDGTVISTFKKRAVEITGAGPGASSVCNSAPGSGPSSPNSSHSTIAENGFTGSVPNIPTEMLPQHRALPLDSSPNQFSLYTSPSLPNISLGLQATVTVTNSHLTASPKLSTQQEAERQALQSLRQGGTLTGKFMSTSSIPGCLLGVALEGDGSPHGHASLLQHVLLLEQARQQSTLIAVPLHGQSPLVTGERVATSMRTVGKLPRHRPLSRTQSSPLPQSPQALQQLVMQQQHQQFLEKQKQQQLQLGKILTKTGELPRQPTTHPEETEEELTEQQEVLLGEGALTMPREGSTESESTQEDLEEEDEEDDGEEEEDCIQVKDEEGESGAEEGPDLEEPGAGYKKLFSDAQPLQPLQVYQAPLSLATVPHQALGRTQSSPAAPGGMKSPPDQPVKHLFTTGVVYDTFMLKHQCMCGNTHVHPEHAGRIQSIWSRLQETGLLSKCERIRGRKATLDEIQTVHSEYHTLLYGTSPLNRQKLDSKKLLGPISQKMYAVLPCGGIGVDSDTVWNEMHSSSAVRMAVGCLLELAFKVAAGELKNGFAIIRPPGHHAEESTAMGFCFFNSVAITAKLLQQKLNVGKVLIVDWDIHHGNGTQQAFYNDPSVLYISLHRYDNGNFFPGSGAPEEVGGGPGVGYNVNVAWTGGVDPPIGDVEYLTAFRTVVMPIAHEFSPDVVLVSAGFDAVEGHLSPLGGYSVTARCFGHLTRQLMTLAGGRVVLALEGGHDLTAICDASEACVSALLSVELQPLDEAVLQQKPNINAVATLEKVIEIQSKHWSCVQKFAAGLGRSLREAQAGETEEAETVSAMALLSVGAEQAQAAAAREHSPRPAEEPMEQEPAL
Chain of recombinant human HDAC1 (Q13547 whole entry, canonical isoform): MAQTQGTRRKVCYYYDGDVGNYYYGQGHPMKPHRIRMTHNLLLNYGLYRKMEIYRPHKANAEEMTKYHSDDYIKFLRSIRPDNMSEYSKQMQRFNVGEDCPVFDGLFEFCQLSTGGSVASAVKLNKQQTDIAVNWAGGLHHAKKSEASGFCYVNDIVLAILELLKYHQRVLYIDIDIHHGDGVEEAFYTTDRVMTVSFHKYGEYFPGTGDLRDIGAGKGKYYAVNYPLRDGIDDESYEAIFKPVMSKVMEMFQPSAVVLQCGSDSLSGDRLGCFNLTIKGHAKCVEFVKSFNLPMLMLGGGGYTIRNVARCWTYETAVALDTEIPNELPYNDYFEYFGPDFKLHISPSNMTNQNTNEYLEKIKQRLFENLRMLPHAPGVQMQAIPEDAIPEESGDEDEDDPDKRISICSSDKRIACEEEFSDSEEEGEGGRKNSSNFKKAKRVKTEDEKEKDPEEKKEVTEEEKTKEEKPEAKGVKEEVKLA

In the case of `CCC(=O)CCCCC[C@@H]1NC(=O)[C@H](C)NC(=O)C[C@H](CC(C)C)NC(=O)[C@H](Cc2c[nH]c3ccccc23)NC1=O` [compound 3], the IC50 in assay [1] is 19 nM; at recombinant human HDAC1, 35 nM; on recombinant human HDAC2 it was 30 nM; at recombinant human HDAC4, above 10000 nM; at recombinant human HDAC5, 70 nM; at recombinant human HDAC7, above 10000 nM. Further, the half-maximal inhibitory concentration (IC50) stood at 30 nM at recombinant human HDAC9 and 20 nM on recombinant human HDAC10.

For `CC(C)C[C@H]1CC(=O)N[C@@H](C)C(=O)N[C@@H](CCCCCC(=O)NO)C(=O)N[C@@H](Cc2c[nH]c3ccccc23)C(=O)N1` [3a] (cyclo([Asu](NHOH)W[β3hL]A)), the concentration for half-maximal inhibition (IC50) was above 10000 nM at recombinant human HDAC4; 2.5 nM at recombinant human HDAC5; above 10000 nM at recombinant human HDAC7; 0.6 nM on recombinant human HDAC9; 0.2 nM at recombinant human HDAC10.

Turning to `CCC(=O)CCCCC[C@@H]1NC(=O)C[C@H](C)NC(=O)C[C@H](CC(C)C)NC(=O)[C@H](Cc2c[nH]c3ccccc23)NC1=O` [compound 5], the “HDAC inhibitory activity in HeLa cell nuclear extract, result in words” value (“HDAC inhibitory activity” below) in assay [1] is on record as “high nanomolar activity”.

`CC(C)C[C@H]1CC(=O)N2CCC[C@H]2C(=O)N[C@@H](CCCCCC(=O)NO)C(=O)N[C@@H](Cc2c[nH]c3ccccc23)C(=O)N1` [4a] (cyclo([Asu](NHOH)W[β3hL]P)): the “Increase of potency relative to the parent ethylketones 3 and 4” value in [1] is on record as “at least 10 fold”. The concentration for half-maximal inhibition (IC50) was below 1 nM in assay [1]; 0.6 nM on recombinant human HDAC1; 35 nM on recombinant human HDAC3; above 10000 nM at recombinant human HDAC4; above 10000 nM at recombinant human HDAC7; 35 nM at recombinant human HDAC6.

On to `CC(C)C[C@H]1CC(=O)N[C@@H](C)C(=O)N[C@@H](CCCCCC(=O)O)C(=O)N[C@@H](Cc2c[nH]c3ccccc23)C(=O)N1` [3b] (cyclo([Asu]W[β3hL]A)), for which, in assay [1], the “HDAC inhibitory activity” value is listed as “significantly decreased potency”. Also, the half-inhibitory concentration (IC50) at recombinant human HDAC4 is above 10000 nM; at recombinant human HDAC5 it was 700 nM; at recombinant human HDAC7 it was above 10000 nM; at recombinant human HDAC9, 550 nM; at recombinant human HDAC10, 280 nM.

Take `CCC(=O)CCCCC[C@@H]1NC(=O)[C@H](C)N(C)C(=O)C[C@H](CC(C)C)NC(=O)[C@H](Cc2c[nH]c3ccccc23)NC1=O` [3h]: the “HDAC inhibitory activity” value in assay [1] is “modest loss of potency”. The IC50 at recombinant human HDAC4 is above 10000 nM; on recombinant human HDAC5, 60 nM; on recombinant human HDAC7, above 10000 nM; at recombinant human HDAC9, 25 nM; on recombinant human HDAC6, above 10000 nM; at recombinant human HDAC10, 28 nM.

In the case of `CCC(=O)CCCCC[C@@H]1NC(=O)[C@@H]2CCCN2C(=O)C[C@H](CC(C)C)NC(=O)[C@H](Cc2c[nH]c3ccccc23)NC1=O` [compound 4], the “HDAC inhibitory activity” value in assay [1] was “low nanomolar IC50 values comparable to that of apicidin”. Further, the 50% inhibitory concentration (IC50) was 9 nM in assay [1]; above 10000 nM at recombinant human HDAC4; 50 nM on recombinant human HDAC5; above 10000 nM on recombinant human HDAC7; 22 nM on recombinant human HDAC9.
